The test system of assay [1] is human lung cancer cell line NCI-H23. In words: Colony formation assay of long-term effect. It counts as cell-based. The following applies: exposed for three days, drug-free medium until 12 days; compared with AZD1152. An excerpt:
Acute cytotoxicity immediately determined after short-term exposure to antimitotic agents often underestimates their potency, because some cancer cells might not die quickly after suffering mitotic defects such as an arrest in mitosis or a cytokinetic failure. Instead, after exposed to antimitotic agents, cells might face multiple possibilities that adversely affect their viability and proliferation in long-term such as permanent arrest of proliferation due to the development of senescence and nonapoptotic cell death by excessive autophagy. Only a small fraction of cells pretreated with an antimitotic agent might resume proliferation and divide to generate viable daughter cells that form colonies. Assay of the ability of cells to form colonies after being exposed to an anticancer agent for a short period of time represents a more accurate approach to document the potency of antimitotic agents. The human lung cancer cell line NCI-H23 in sub-confluence was exposed to compounds #7, #36, and #39 for three days and then transferred to drug-free fresh medium once every 3 days until 12 days after the initiation of treatment. At the end point, cells were photographed after fixed and stained with crystal violet.

The subject of assay [2] is colon cancer cell line HCT116. In words: Soft agar colony formation assay. It counts as cell-based, human. An excerpt: (§1) Measuring the ability of cells to grow in soft agar has been popularly believed as the gold standard assay for cellular transformation in vitro. In the Soft Agar Assay, cells grow from single cells to cell colonies in a semi-solid agar solution that keeps them away from the solid surface and allows growth in an anchorage-independent way.
The anchorage-independent growth of cells is one of the hallmarks of cancer cells. Normal epithelial cells are supported by basement membranes that provide survival and proliferative signals while undergo a type of apoptosis called anoikis when lose their attachment to the extracellular matrix. Cancer cells, in contrast, evade detachment-induced apoptosis, leading to uncontrolled proliferation and metastasis. The Soft Agar Colony Formation Assay allows testing of the therapeutic efficacy of compounds against anchorage-independent 3D growth of cancer cells in vin. The assay was performed in 6-well plates with two layers of agar. For the first, 0.75% agar in DMEM medium was melted in a microwave oven and poured to form a bottom layer. Once solidified, 10-100K cells in 1 ml of DMEM containing 0.35% agar was added to form the top layer, which was later covered with 0.5 ml of DMEM. Cell culture medium was changed once every two days until colonies were ready to photograph. We test the antitumor activity of select compounds in soft agar colony formation assays. […] The suppression of growth of these three cancer cell lines in 3D culture is consistent with the potent impact of these compounds on cellular proliferation in 2D culture.

Assay [3] has as its system NCI-N87. In words: MECP in cancer cell line. In kind it is cell-based. To be noted: Homo sapiens. The gist of the method:
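Cells grown in DMEM with 5% FBS at 37° C, 5% CO2, then treated at 1 nM to 30 μM. Imaging at 24, 48 or 72 h scored mitotic arrest or DNA-content change; hits show transient mitotic-index rise at 24 h and polyploid accumulation at 48 h; values binned A (≤1.0 μM) to D (>30.0 μM).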

Another assay concerns A549. In words: MTT assay of cellular proliferation. In kind it is cell-based. The following applies: Homo sapiens, 50% inhibition of cellular proliferation. The gist of the method: (§2)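 EC50 for 50% growth inhibition came from MTT formazan absorbance at 570 nm after 3–4 h dye incubation. Beforehand, cells grown to 20–30% confluence (15–24 h) in DMEM/5% FBS were treated with compound over 1 nM–30 μM.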
(Formazan colour is commonly taken as a measure of viable cells.)

A further assay has as its system Calu-6. In words: MTT assay of cellular proliferation. It counts as cell-based. To be noted: Homo sapiens; Calu-6, MTT, 50% inhibition of cellular proliferation. The essentials: as §2
A further assay relates to NCI-H2170. In words: MTT assay of cellular proliferation. In kind it is cell-based. To be noted: Homo sapiens, 50% inhibition of cellular proliferation. The essentials: as §2
Assay [4] relates to NCI-N87. The experiment in a line: MTT assay of cellular proliferation. It counts as cell-based. The following applies: Homo sapiens, 50% inhibition of cellular proliferation. The essentials: as §2
The next assay relates to DU145. In words: MTT assay of cellular proliferation. It counts as cell-based. The following applies: Homo sapiens, DU-145, 50% inhibition of cellular proliferation. The essentials: as §2
Assay [5] concerns human lung cancer cell line NCI-H23. The experiment in a line: Soft agar colony formation assay. In kind it is cell-based.
Source text: as §1
The anchorage-independent growth of cells is one of the hallmarks of cancer cells. Normal epithelial cells are supported by basement membranes that provide survival and proliferative signals while undergo a type of apoptosis called anoikis when lose their attachment to the extracellular matrix. Cancer cells, in contrast, evade detachment-induced apoptosis, leading to uncontrolled proliferation and metastasis. The Soft Agar Colony Formation Assay allows testing of the therapeutic efficacy of compounds against anchorage-independent 3D growth of cancer cells in vin. The assay was performed in 6-well plates with two layers of agar. For the first, 0.75% agar in DMEM medium was melted in a microwave oven and poured to form a bottom layer. Once solidified, 10-100K cells in 1 ml of DMEM containing 0.35% agar was added to form the top layer, which was later covered with 0.5 ml of DMEM. Cell culture medium was changed once every two days until colonies were ready to photograph. […]

“Also recorded” adds a separate entry of the source.

As to `COc1cc(OC)cc(Oc2ccnc3ccccc23)c1` [Compound 7, 4-(3,5-dimethoxyphenoxy)quinoline], the “long-term proliferative potential of NCI-H23 cells (colony formation)” value (“long-term proliferative potential” below) in assay [1] is given as “Suppress the Long-Term Proliferative Potential; also recorded: inhibited the long-term proliferative potential”. Besides, the “growth in soft agar” value in assay [2] is reported as “suppressed the growth”.
`COC(=O)c1cc(OC)cc(Oc2ncnc3cc(OC)c(OC)cc23)c1` [Compound 29]: in the assay with NCI-N87 [3], the minimal effective concentration – broadly, the lowest level tested that produced the effect sought – lay in the range of 0.001 to 1 µM. Also, the EC50 (commonly the concentration at which the effect is half-maximal) is > 30000 nM with A549; 1 to 1000 nM in the assay on Calu-6; 1 to 1000 nM in the assay with NCI-H2170; 1 to 1000 nM in the assay on NCI-N87 [4]; 1 to 1000 nM with DU145.
In the case of `COC(=O)c1cc(OC)cc(Oc2ncnc3cc[nH]c23)c1` [Compound 34, methyl 3-((5H-pyrrolo[3,2-d]pyrimidin-4-yl)oxy)-5-methoxybenzoate], the minimal effective concentration in the assay with NCI-N87 [3] was in the range of 0.001 to 1 µM. For the same molecule, the half-maximal effective concentration (EC50) in the assay with A549 was > 30000 nM; in the assay with Calu-6, 1 to 1000 nM; with NCI-H2170, 1 to 1000 nM; in the assay with NCI-N87 [4] it was 1 to 1000 nM; with DU145 it was 1 to 1000 nM.
On to `COC(=O)c1cc(Oc2ncnc3cc[nH]c23)cc(C(=O)OC)c1` [Compound 36, dimethyl 5-((5H-pyrrolo[3,2-d]pyrimidin-4-yl)oxy)isophthalate], for which the minimal effective concentration with NCI-N87 [3] lay within 0.001 to 1 µM. In assay [1], the “long-term proliferative potential” value is reported as “Suppress the Long-Term Proliferative Potential; also recorded: inhibited the long-term proliferative potential”. The EC50 was > 30000 nM in the assay on A549; 1 to 1000 nM in the assay on Calu-6; 1 to 1000 nM in the assay on NCI-H2170; 1 to 1000 nM in the assay with NCI-N87 [4]; 1 to 1000 nM with DU145. Also, the “growth in soft agar” value in [5] is listed as “completely blocked the growth”.
Turning to `COC(=O)c1cc(OC)cc(Oc2ncnc3ccsc23)c1` [Compound 37, methyl 3-methoxy-5-(thieno[3,2-d]pyrimidin-4-yloxy)benzoate], in the assay with NCI-N87 [3], the minimal effective concentration is 0.001 to 1 µM. The EC50 in the assay with A549 was > 30000 nM; in the assay with Calu-6 it was 1 to 1000 nM; in the assay on NCI-H2170 it was 1 to 1000 nM; in the assay on NCI-N87 [4] it was 1 to 1000 nM; in the assay on DU145, 1 to 1000 nM.
Take `COC(=O)c1cc(Oc2ncnc3ccsc23)cc(C(=O)OC)c1` [Compound 39, dimethyl 5-(thieno[3,2-d]pyrimidin-4-yloxy)isophthalate]: in the assay with NCI-N87 [3], the minimal effective concentration fell in the range of 0.001 to 1 µM. The “long-term proliferative potential” value in [1] was “Suppress the Long-Term Proliferative Potential; also recorded: inhibited the long-term proliferative potential”. Also, the EC50 was > 30000 nM with A549; 1 to 1000 nM with Calu-6; 1000 to 10000 nM with NCI-H2170; 1 to 1000 nM with NCI-N87 [4]; 1 to 1000 nM in the assay on DU145. The “growth in soft agar” value in [5] is listed as “completely blocked the growth”.
